pEC50: −log10 of the molar value.

The target of this assay is T1, GTPase KRas [1-37] (Homo sapiens, UniProt G3V5T7).
T1 construct: 1-37
T1 sequence (G3V5T7 whole entry): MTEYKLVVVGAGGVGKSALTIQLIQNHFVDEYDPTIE
In words: inhibitors of GTP binding to wildtype Ras, dose response, biochemical, multiplex bead flow cytometry (AID 1335). Background: In flow cytometry, cells or beads pass a laser one at a time.
A word on the pEC50: it is the EC50 on a negative log10 scale, so that one unit is a factor of ten. High values mean a low EC50, low ones a high EC50. As to `CCS(=O)(=O)N1N=C(c2cccc(NS(C)(=O)=O)c2)CC1c1ccc(C)cc1` (stereo not given) [MLS000680398], the pEC50 is 5.58.

On to `Cc1cc(C(=O)Oc2ccccc2C(=O)O)c(C)o1` [2-(2,5-dimethyl-3-furoyl)oxybenzoic acid], for which the negative-log EC50 (pEC50) was 5.44.

In the case of `CCN1C(c2ccccc2)=C(c2ccccc2)S/C1=C/C=C1\SC(=S)N(C)C1=O` [(5Z)-5-[(2E)-2-(3-ethyl-4,5-diphenyl-1,3-thiazol-2-ylidene)ethylidene]-3-methyl-2-sulfanylidene-1,3-thiazolidin-4-one], the negative-log EC50 (pEC50) is 4.47.

For the compound `O=C(O)/C=C/c1cn(Cc2ccccc2)nc1-c1cccs1` [(E)-3-(1-benzyl-3-thiophen-2-ylpyrazol-4-yl)prop-2-enoic acid], the pEC50 was 5.39.

`Cc1ccc(-n2c(=O)cc(N3CCc4ccccc4C3)[nH]c2=O)cc1` had a negative-log EC50 (pEC50) of 4.36.

Compound `Cc1cc(C(=O)O)sc1CNCc1ccccc1Cl` [5-[[(2-chlorobenzyl)amino]methyl]-4-methyl-2-thenoic acid] had a pEC50 of 7.11.

Turning to `Cc1cc(NC(=O)CSc2nc(O)c(C#N)c(-c3ccccc3)n2)no1` [2-[(5-cyano-4-oxidanylidene-6-phenyl-1H-pyrimidin-2-yl)sulfanyl]-N-(5-methyl-1,2-oxazol-3-yl)ethanamide], the pEC50 is 5.05.

Consider `CC1(C)Cc2c(sc(NC(=S)NC(=O)c3ccccc3)c2C(=O)O)CO1` [2-(benzoylcarbamothioylamino)-5,5-dimethyl-4,7-dihydrothieno[2,3-c]pyran-3-carboxylic acid], for which the negative-log EC50 (pEC50) is 7.00.

In turn, `O=C(O)c1ccccc1OCc1ccccc1Br` [2-(2-bromobenzyl)oxybenzoic acid] had a pEC50 of 6.96.

Consider `CCn1cc(C=C2C(=O)c3ccccc3C2=O)c2ccccc21` [2-[(1-ethyl-3-indolyl)methylidene]indene-1,3-dione], for which the pEC50 was 5.10.

The values are drawn from BindingDB's records for doi:10.7270/Q2XS5SSN (Nmmlsc, 2010).
